# From patent publication US12692269B2, “Therapeutic compounds” (Genentech, Inc., priority 2019, dated 2026)
# pEC50: −log10 of the molar value.
# Assays:
# Assay type in all cases: binding
# [1] = molecular target: TEAD2 TAZ (amino acids 13-57) (Homo sapiens, UniProt Q15562); assay: TEAD2-TAZ HTRF (TR-FRET) protein-protein interaction assay; settings: for TEAD2 TAZ HTRF combined: Max % Inhibition: TEAD2, TAZ peptide; for pEC50: TEAD2-TAZ HTRF, TR-FRET 665 nm/615 nm, read-out: TEAD2 TAZ HTRF combined: EC50
# TEAD2 TAZ (amino acids 13-57), sequence (Q15562 217-447): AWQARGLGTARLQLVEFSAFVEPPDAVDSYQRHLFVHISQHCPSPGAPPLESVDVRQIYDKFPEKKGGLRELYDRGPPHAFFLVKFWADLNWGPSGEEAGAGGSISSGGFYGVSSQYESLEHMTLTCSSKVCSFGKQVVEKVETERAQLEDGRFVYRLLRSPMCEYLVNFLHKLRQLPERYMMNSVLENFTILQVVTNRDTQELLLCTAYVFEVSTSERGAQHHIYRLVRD
# Method in brief: (§1)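 His-tagged TEAD YAP-binding domain (aa 217-447) pre-bound to Eu anti-His tracer, incubated with compound 30 min, then biotinylated YAP (aa 50-100) or TAZ (aa 13-57) peptide with streptavidin-XL665 added for 60 min at room temperature. TR-FRET read at 665/615 nm; IC50 or EC50 from four-parameter fit.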
# [2] = molecular target: TEAD3 TAZ (amino acids 13-57) (Homo sapiens, UniProt Q99594); assay: TEAD3-TAZ HTRF (TR-FRET) protein-protein interaction assay; settings: for TEAD3 TAZ HTRF combined: Max % Inhibition: TEAD3, TAZ peptide; for pEC50: TEAD3-TAZ HTRF, TR-FRET 665 nm/615 nm, read-out: TEAD3 TAZ HTRF combined: EC50
# TEAD3 TAZ (amino acids 13-57), sequence (Q99594 173-435 limits assumed): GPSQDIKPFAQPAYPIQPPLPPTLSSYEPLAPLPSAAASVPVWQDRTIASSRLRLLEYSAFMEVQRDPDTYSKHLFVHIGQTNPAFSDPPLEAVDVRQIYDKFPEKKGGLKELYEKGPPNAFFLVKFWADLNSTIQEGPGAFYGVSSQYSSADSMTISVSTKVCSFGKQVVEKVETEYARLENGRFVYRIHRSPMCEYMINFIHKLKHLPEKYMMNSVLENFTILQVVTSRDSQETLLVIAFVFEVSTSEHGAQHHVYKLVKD
# Method in brief: as §1
# TEAD2 YAP50-100 = TEAD2 YAP50-100 (Homo sapiens, UniProt Q15562); assay: TEAD2-YAP HTRF (TR-FRET) protein-protein interaction assay; settings: TEAD2, YAP peptide 50-100, HTRF; for pEC50: read-out: TEAD2 YAP50-100 HTRF combined: EC50
# TEAD2 YAP50-100, sequence (Q15562 217-447): as the sequence (Q15562 217-447) above
# Method in brief: as §1
# TEAD4 YAP50-100 = TEAD4 YAP50-100 (Homo sapiens, UniProt Q15561); assay: TEAD4-YAP HTRF (TR-FRET) protein-protein interaction assay; settings: TEAD4, YAP peptide 50-100, HTRF; for pEC50: read-out: TEAD4 YAP50-100 HTRF combined: EC50
# TEAD4 YAP50-100, sequence (Q15561 217-434 limits assumed): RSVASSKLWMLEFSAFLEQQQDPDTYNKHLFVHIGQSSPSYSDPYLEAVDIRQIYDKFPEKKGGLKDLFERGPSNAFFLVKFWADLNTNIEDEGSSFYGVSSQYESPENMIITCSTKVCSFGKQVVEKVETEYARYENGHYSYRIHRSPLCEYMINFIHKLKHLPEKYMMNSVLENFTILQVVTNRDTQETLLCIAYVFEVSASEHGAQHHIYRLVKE
# Method in brief: as §1
# [3] = molecular target: TEAD1 TAZ (amino acids 13-57) (Homo sapiens, UniProt P28347); assay: TEAD1-TAZ HTRF (TR-FRET) protein-protein interaction assay; settings: for TEAD1 TAZ HTRF combined: Max % Inhibition: TEAD1, TAZ peptide; for pEC50: TEAD1-TAZ HTRF, TR-FRET 665 nm/615 nm, read-out: TEAD1 TAZ HTRF combined: EC50
# TEAD1 TAZ (amino acids 13-57), sequence (P28347 167-426 limits assumed): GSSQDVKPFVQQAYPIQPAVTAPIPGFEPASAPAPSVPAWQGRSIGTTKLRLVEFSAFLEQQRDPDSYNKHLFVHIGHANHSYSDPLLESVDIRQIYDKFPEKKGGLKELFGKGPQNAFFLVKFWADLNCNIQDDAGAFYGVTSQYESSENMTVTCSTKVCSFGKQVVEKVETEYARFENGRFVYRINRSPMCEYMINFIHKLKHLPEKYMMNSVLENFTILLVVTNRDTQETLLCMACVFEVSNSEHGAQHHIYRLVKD
# Method in brief: as §1
# [4] = molecular target: TEAD4 TAZ (amino acids 13-57) (Homo sapiens, UniProt Q15561); assay: TEAD4-TAZ HTRF (TR-FRET) protein-protein interaction assay; settings: for TEAD4 TAZ HTRF combined: Max % Inhibition: TEAD4, TAZ peptide; for pEC50: TEAD4-TAZ HTRF, TR-FRET 665 nm/615 nm, read-out: TEAD4 TAZ HTRF combined: EC50
# TEAD4 TAZ (amino acids 13-57), sequence (Q15561 217-434 limits assumed): as the sequence (Q15561 217-434 limits assumed) above
# Method in brief: as §1
# TEAD1 YAP50-100 = TEAD1 YAP50-100 (Homo sapiens, UniProt P28347); assay: TEAD1-YAP HTRF (TR-FRET) protein-protein interaction assay; settings: TEAD1, YAP peptide 50-100, HTRF; for pEC50: read-out: TEAD1 YAP50-100 HTRF combined: EC50
# TEAD1 YAP50-100, sequence (P28347 167-426 limits assumed): as the sequence (P28347 167-426 limits assumed) above
# Method in brief: as §1
# TEAD3 YAP50-100 = TEAD3 YAP50-100 (Homo sapiens, UniProt Q99594); assay: TEAD3-YAP HTRF (TR-FRET) protein-protein interaction assay; settings: TEAD3, YAP peptide 50-100, HTRF; for pEC50: read-out: TEAD3 YAP50-100 HTRF combined: EC50
# TEAD3 YAP50-100, sequence (Q99594 173-435 limits assumed): as the sequence (Q99594 173-435 limits assumed) above
# Method in brief: as §1
SMILES,TEAD2 TAZ HTRF combined: Max % Inhibition [1],pEC50 [1],TEAD3 TAZ HTRF combined: Max % Inhibition [2],pEC50 [2],TEAD2 YAP50-100 HTRF combined: Max % Inhibition (TEAD2 YAP50-100),pEC50 (TEAD2 YAP50-100),TEAD4 YAP50-100 HTRF combined: Max % Inhibition (TEAD4 YAP50-100),pEC50 (TEAD4 YAP50-100),TEAD1 TAZ HTRF combined: Max % Inhibition [3],pEC50 [3],TEAD4 TAZ HTRF combined: Max % Inhibition [4],pEC50 [4],TEAD1 YAP50-100 HTRF combined: Max % Inhibition (TEAD1 YAP50-100),pEC50 (TEAD1 YAP50-100),TEAD3 YAP50-100 HTRF combined: Max % Inhibition (TEAD3 YAP50-100),pEC50 (TEAD3 YAP50-100)
"Cc1ccnc(-c2nn3c(=O)cc(-c4ccc(C5CCCCC5)cc4)[nH]c3c2C(=O)N2CC(CF)C2)c1C [Compound 29, 5-(4-Cyclohexylphenyl)-2-(3,4-dimethylpyridin-2-yl)-3-(3-(fluoromethyl)azetidine-1-carbonyl)pyrazolo[1,5-a]pyrimidin-7(4H)-one]",70.0%,7.70,57.5%,6.77,70.0%,7.70,54.0%,7.52,71.5%,7.05,50.5%,7.70,78.0%,7.22,72.5%,6.74
"Cc1nccnc1-c1nn2c(=O)cc(-c3ccc(CC4CCCC4)cc3)[nH]c2c1C(=O)N1C[C@H](CF)[C@@H]1C (single isomer, unassigned) [Isomer B, Example 42]",62.0%,8.00,60.0%,7.05,68.0%,8.00,52.5%,7.70,59.0%,7.22,48.5%,7.70,68.0%,7.40,68.0%,7.10
"Cc1nccnc1-c1nn2c(=O)cc(-c3ccc(C4CCCCC4)cc3)[nH]c2c1C(=O)N1C[C@H](CF)[C@@H]1C (single isomer, unassigned) [Isomer B, Example 41]",74.4%,7.70,73.8%,6.85,77.8%,7.70,57.2%,7.52,71.0%,7.15,57.0%,7.52,80.0%,7.10,80.2%,6.92
"O=C(c1c(-c2nccnc2C(F)(F)F)nn2c(=O)cc(-c3ccc(C4CCCCC4)cc3)[nH]c12)N1CC(CF)C1 [Compound 7, 5-(4-Cyclohexylphenyl)-3-(3-(fluoromethyl)azetidine-1-carbonyl)-2-(3-(trifluoromethyl)pyrazin-2-yl)pyrazolo[1,5-a]pyrimidin-7(4H)-one]",67.0%,7.52,61.0%,6.49,61.0%,7.40,54.0%,6.59,74.0%,6.70,50.0%,6.80,78.0%,6.70,71.0%,6.46
"CN(C)C(=O)c1nn2c(=O)cc(-c3cc(F)c(C4CCCCC4)c(F)c3)[nH]c2c1C(=O)N1CC(CF)C1 [Compound 3, 5-(4-Cyclohexyl-3,5-difluorophenyl)-3-(3-(fluoromethyl)azetidine-1-carbonyl)-N,N-dimethyl-7-oxo-4,7-dihydropyrazolo[1,5-a]pyrimidine-2-carboxamide]",55.0%,8.00,44.0%,6.72,56.5%,8.00,39.5%,6.68,44.0%,7.05,29.0%,6.77,55.0%,7.22,66.5%,6.64
"C[C@H](CO)c1nn2c(=O)cc(-c3ccc(C4CCCCC4)cc3)[nH]c2c1C(=O)N1CC(CF)C1 (single isomer, unassigned) [Enantiomer A, Example 55]",51.5%,8.00,59.5%,6.96,61.5%,8.00,42.0%,6.30,44.0%,6.96,32.0%,6.34,62.0%,7.10,69.5%,7.00
"CCCCCCCCCc1cc(=O)n2nc(-c3nccnc3C)c(C(=O)N3C[C@H](CF)[C@@H]3C)c2[nH]1 [Compound 71, 3-((2S,3S)-3-(fluoromethyl)-2-methylazetidine-1-carbonyl)-2-(3-methylpyrazin-2-yl)-5-nonylpyrazolo[1,5-a]pyrimidin-7(4H)-one]",64.0%,8.00,49.0%,7.30,64.0%,8.00,48.5%,5.46,52.5%,7.30,56.5%,5.52,53.0%,7.30,61.0%,7.22
"CN(C)C(=O)c1nn2c(=O)cc(-c3ccc(CC4CCCC4)cc3)[nH]c2c1C(=O)N1CC(CF)C1 [Compound 2, 5-(4-(Cyclopentylmethyl)phenyl)-3-(3-(fluoromethyl)azetidine-1-carbonyl)-N,N-dimethyl-7-oxo-4,7-dihydropyrazolo[1,5-a]pyrimidine-2-carboxamide]",66.5%,8.00,44.0%,6.92,68.0%,8.00,51.5%,6.33,47.0%,7.15,42.0%,6.48,62.0%,7.22,60.5%,6.92
"Cc1nccnc1-c1nn2c(=O)cc(-c3ccc(C4CCCCC4)cc3)[nH]c2c1C(=O)N1CC(CF)C1 [Compound 27, 5-(4-Cyclohexylphenyl)-3-(3-(fluoromethyl)azetidine-1-carbonyl)-2-(3-methylpyrazin-2-yl)pyrazolo[1,5-a]pyrimidin-7(4H)-one]",67.9%,8.00,64.9%,7.00,68.6%,8.00,54.1%,7.52,74.5%,7.30,53.1%,7.52,75.0%,7.52,74.6%,7.00
